According to publication PMC9782245, “Synthesis and Structural Optimization of 2,7,9-Trisubstituted purin-8-ones as FLT3-ITD Inhibitors” (International Journal of Molecular Sciences, 2022):
Where “and” joins values, the source holds several entries; their conditions need not be identical. Equal values may be shown once. Read-outs that look alike come from different tables or passages of the source.

Columns and labels:
CDK2/E = CDK2/E (Homo sapiens, UniProt P24941); assay: Kinase inhibition assay CDK2/E; type: biochemical
Method: (§1) Newly prepared compounds 12–15 were assayed for inhibition of FLT3-ITD kinase as well as CDK4 and CDK2, known off-targets of structurally related compounds. We observed that CDK4 was sensitive to nearly all compounds with IC50 values in mid-nanomolar values.
(§2) CDK/cyclin complexes and FLT3 kinases were assayed as previously described. Protein kinase selectivity was evaluated at a single concentration (1 µM) by screening against 30 enzymes at Eurofins Discovery (France).

FLT3-ITD = target: T1, FLT3-ITD (Homo sapiens, UniProt P36888, ITD); assay: Kinase inhibition assay FLT3-ITD; type: biochemical
T1 sequence (P36888 27-993): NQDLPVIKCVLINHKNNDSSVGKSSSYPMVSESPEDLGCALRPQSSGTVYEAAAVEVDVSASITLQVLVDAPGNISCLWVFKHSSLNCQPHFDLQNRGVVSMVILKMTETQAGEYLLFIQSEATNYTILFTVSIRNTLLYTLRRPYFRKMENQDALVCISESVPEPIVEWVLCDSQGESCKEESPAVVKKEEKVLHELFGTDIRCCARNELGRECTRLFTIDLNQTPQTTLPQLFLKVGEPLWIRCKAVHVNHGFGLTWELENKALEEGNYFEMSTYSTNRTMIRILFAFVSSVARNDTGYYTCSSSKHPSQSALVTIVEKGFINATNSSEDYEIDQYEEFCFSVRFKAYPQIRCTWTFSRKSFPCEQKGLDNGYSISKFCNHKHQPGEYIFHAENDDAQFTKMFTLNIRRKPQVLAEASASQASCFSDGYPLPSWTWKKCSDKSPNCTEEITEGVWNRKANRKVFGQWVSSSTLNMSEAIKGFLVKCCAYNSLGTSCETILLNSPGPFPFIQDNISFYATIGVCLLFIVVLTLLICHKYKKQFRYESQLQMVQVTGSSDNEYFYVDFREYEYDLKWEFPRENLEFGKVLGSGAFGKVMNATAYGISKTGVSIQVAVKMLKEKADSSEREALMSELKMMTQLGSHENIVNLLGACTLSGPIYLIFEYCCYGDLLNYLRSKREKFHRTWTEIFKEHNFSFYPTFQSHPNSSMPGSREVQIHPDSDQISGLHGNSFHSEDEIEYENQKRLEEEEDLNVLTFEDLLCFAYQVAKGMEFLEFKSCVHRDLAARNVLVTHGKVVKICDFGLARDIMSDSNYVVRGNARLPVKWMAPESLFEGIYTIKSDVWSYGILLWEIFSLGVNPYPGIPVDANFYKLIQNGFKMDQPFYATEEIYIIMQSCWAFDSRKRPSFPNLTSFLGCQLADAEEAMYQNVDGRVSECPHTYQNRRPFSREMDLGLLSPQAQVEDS
Method: as §1, §2

K562 cells = assay: Resazurin-based viability assay, K562; type: cell-based; details: Homo sapiens, 72 h, at least duplicate experiments
Text: (§3) In parallel to kinase assays, we measured the effect of compounds on the viability of cancer cell lines MV4-11 and K562 using a resazurin-based assay. MV4-11 is an AML cell line dependent on a constitutively activated FLT3-ITD kinase with high sensitivity to FLT3 inhibition, K562 cells (chronic myelogenous leukemia) are independent on FLT3.
(§4) Human cell lines were obtained from the European Collection of Authenticated Cell Cultures (K562) and Cell lines service (MV4-11) and were cultivated according to the provider’s instructions. Briefly, cells were maintained in RPMI-1640 (MV4-11) or DMEM (K562) supplemented with 10% fetal bovine serum, penicillin (100 U/mL), and streptomycin (0.1 mg/mL) at 37 °C in 5% CO2. For the viability assays, cells were treated in triplicate with six different doses of each compound for 72 h. After treatments, the resazurin (Sigma Aldrich, St. Louis, MO, USA) solution was added for 4 h, and the fluorescence of resorufin corresponding to live cells was measured at 544/590 nm (excitation/emission) using a Fluoroskan Ascent microplate reader (Labsystems). The GI50 value, the drug concentration lethal to 50% of the cells, was calculated from the dose-response curves that resulted from the assays.

CDK4/D1 = CDK4/D1 (Homo sapiens, UniProt P11802); assay: Kinase inhibition assay CDK4/D1; type: biochemical
Method: as §1, §2

MV4-11 cells = assay: Resazurin-based viability assay, MV4-11; type: cell-based, Human; details: for GI50: Homo sapiens, MV4-11, 72 h, resazurin, at least duplicate experiments
Text: as §3, §4

[1] = at least duplicate experiments, read-out: IC50 CDK2/E
[2] = at least duplicate experiments, read-out: IC50 FLT3-ITD
[3] = at least duplicate experiments, read-out: IC50 CDK4/D1

Sequence of CDK4/D1 (P11802 whole entry): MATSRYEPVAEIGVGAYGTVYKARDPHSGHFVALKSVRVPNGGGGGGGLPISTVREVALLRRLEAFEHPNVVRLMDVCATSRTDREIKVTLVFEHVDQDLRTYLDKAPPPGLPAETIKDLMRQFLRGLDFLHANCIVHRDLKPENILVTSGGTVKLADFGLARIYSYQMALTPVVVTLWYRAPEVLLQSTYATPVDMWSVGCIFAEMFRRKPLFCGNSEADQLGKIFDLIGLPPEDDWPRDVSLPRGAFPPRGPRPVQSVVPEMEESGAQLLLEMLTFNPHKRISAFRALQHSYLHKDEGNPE
Sequence of CDK4/D1 (P24385 whole entry partner): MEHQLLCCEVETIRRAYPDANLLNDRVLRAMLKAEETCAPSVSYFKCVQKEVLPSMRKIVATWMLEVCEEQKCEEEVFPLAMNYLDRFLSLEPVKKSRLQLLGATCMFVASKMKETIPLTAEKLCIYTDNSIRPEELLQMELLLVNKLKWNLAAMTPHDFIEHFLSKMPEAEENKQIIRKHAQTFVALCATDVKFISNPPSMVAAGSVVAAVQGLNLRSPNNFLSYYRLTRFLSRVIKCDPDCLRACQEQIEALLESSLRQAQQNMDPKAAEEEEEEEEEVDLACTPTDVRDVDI

| Compound | IC50 (CDK2/E; [1]) | IC50 (FLT3-ITD; [2]) | GI50 (K562 cells) | IC50 (CDK4/D1; [3]) | melting point | GI50 (MV4-11 cells) | IC50 (FLT3-ITD; read-out: IC50 FLT3) | IC50 (CDK4/D1; read-out: IC50 CDK4) | IC50 (CDK2/E; read-out: IC50 CDK2) | selectivity index (ratio for GI50's of K562 and MV4-11 cells) (MV4-11 cells; K562 / MV4-11) |
| --- | --- | --- | --- | --- | --- | --- | --- | --- | --- | --- |
| FC(F)(F)c1nc2cnc(Nc3ccc(N4CCNCC4)cc3)nc2n1C1CCCC1 [12a] | 1.63 µM | 0.224 µM | 1.11 µM | 0.051 µM | 232 to 234 °C | 0.22 µM |  |  |  |  |
| FC(F)(F)c1nc2cnc(Nc3ccc(N4CCNCC4)cc3)nc2n1C1CCCCC1 [12b] | 0.23 µM | 0.06 µM | 1.17 µM | 0.016 µM | 218 to 220 °C | 0.11 µM |  |  |  |  |
| FC(F)(F)c1nc2cnc(Nc3ccc(N4CCNCC4)cc3)nc2n1C1CCCCCC1 [12d] | 0.15 µM | 0.088 µM | 2.45 µM | 0.022 µM | 216 to 218 °C | 0.25 µM |  |  |  |  |
| O=c1[nH]c2cnc(Nc3ccc(N4CCNCC4)cc3)nc2n1C1CCCC1 [13a] | 24.5 µM | 2.37 µM | 1.63 µM | 2.88 µM | 200 to 202 °C | 0.68 µM |  |  |  |  |
| O=c1[nH]c2cnc(Nc3ccc(N4CCNCC4)cc3)nc2n1C1CCCCC1 [13b] | 3.36 µM | 1.59 µM | 1.78 µM | 0.782 µM |  | 0.69 µM |  |  |  |  |
| CC1CCC(n2c(=O)[nH]c3cnc(Nc4ccc(N5CCNCC5)cc4)nc32)CC1 (stereo not shown) [13c] | 2.56 µM | 1.05 µM | 1.9 µM | 0.451 µM |  | 0.7 µM |  |  |  |  |
| O=c1[nH]c2cnc(Nc3ccc(N4CCNCC4)cc3)nc2n1C1CCCCCC1 [13d] | 1 µM | 0.425 µM | 1.58 µM | 0.479 µM |  | 0.56 µM |  |  |  |  |
| Cn1c(=O)n(C2CC2)c2nc(Nc3ccc(N4CCNCC4)cc3)ncc21 [14b] | > 20 µM | 0.642 µM | 45.3 µM | > 1 µM and 8.02 µM | 156 to 158 °C | 0.71 µM |  |  |  |  |
| Cn1c(=O)n(C2CCC2)c2nc(Nc3ccc(N4CCNCC4)cc3)ncc21 [14c] | 3.9 µM | 0.056 µM | 1.04 µM | 0.524 µM |  | 0.11 µM | 0.05 to 0.06 µM | 0.4 to 0.52 µM |  |  |
| Cn1c(=O)n([C@H]2CC[C@H](O)CC2)c2nc(Nc3ccc(N4CCNCC4)cc3)ncc21 [14f] | > 1 µM and 2.87 µM | 0.132 µM | 9.37 µM | 0.25 µM | 272 to 274 °C | 0.51 µM |  |  |  |  |
| Cn1c(=O)n([C@H]2CC[C@H](C)CC2)c2nc(Nc3ccc(N4CCNCC4)cc3)ncc21 [14g] | 0.18 µM | 0.068 µM | 1.26 µM | 0.027 µM | 114 to 116 °C | 0.11 µM | ≤ 0.3 µM | ≤ 0.3 µM | ≤ 0.3 µM |  |
| Cn1c(=O)n(C2CCCCCC2)c2nc(Nc3ccc(N4CCNCC4)cc3)ncc21 [14h] | 0.06 µM | 0.034 µM | 1.48 µM | 0.022 µM | 256 to 258 °C | 0.1 µM | ≤ 0.3 µM | ≤ 0.3 µM | ≤ 0.3 µM |  |
| Cn1c(=O)n(C2CCCCCCC2)c2nc(Nc3ccc(N4CCNCC4)cc3)ncc21 [14i] | 0.09 µM | 0.012 µM | 2.46 µM | 0.025 µM |  | 0.09 µM | ≤ 0.3 µM | ≤ 0.3 µM | ≤ 0.3 µM | > 20 |
| Cn1c(=O)n(C2CCOCC2)c2nc(Nc3ccc(N4CCNCC4)cc3)ncc21 [14k] | > 1 µM and 9.25 µM | 0.45 µM | 18.2 µM | > 1 µM and 2.53 µM | 124 to 126 °C | 0.59 µM |  |  |  |  |
| Cn1c(=O)n(-c2ccccc2)c2nc(Nc3ccc(N4CCNCC4)cc3)ncc21 [14m] | 3.74 µM | 0.054 µM | 3.03 µM | 0.4 µM | 120 to 122 °C | 0.34 µM | 0.05 to 0.06 µM | 0.4 to 0.52 µM |  |  |
| Cc1ccc(-n2c(=O)n(C)c3cnc(Nc4ccc(N5CCNCC5)cc4)nc32)cc1 [14o] | > 1 µM and 2.4 µM | 0.16 µM | 7.62 µM | 0.169 µM | 126 to 128 °C | 0.46 µM |  |  |  |  |
| COc1ccccc1-n1c(=O)n(C)c2cnc(Nc3ccc(N4CCNCC4)cc3)nc21 [14p] | 1.59 µM | 0.306 µM | 0.37 µM | 2.72 µM | 185 to 187 °C | 0.31 µM |  |  |  |  |
| COc1ccc(-n2c(=O)n(C)c3cnc(Nc4ccc(N5CCNCC5)cc4)nc32)cc1 [14q] | > 1 µM and 6.18 µM | 0.262 µM | 1.97 µM | 0.488 µM | 270 to 272 °C | 0.4 µM |  |  |  |  |
| COc1ccc(Cn2c(=O)n(C)c3cnc(Nc4ccc(N5CCNCC5)cc4)nc32)c(OC)c1 [14r] | > 1 µM and 20 µM | 0.456 µM | 11.9 µM | > 20 µM | 102 to 104 °C | 0.9 µM |  |  |  |  |
| Cn1c(=O)n(-c2cccc3ccccc23)c2nc(Nc3ccc(N4CCNCC4)cc3)ncc21 [14s] | > 1 µM and 9.53 µM | 0.85 µM | 2.53 µM | > 1 µM and 6.9 µM |  | 0.33 µM |  |  |  |  |
| Cn1c(=O)n(C=Cc2ccc(F)cc2)c2nc(Nc3ccc(N4CCNCC4)cc3)ncc21 [14t] | > 1 µM and 7.7 µM | 0.345 µM | 2.29 µM | 0.216 µM | 248 to 250 °C | 0.52 µM |  |  |  |  |
| CC(C)n1c(=O)n(C2CCCCC2)c2nc(Nc3ccc(N4CCNCC4)cc3)ncc21 [15b] | 10.3 µM | 0.068 µM | 1.51 µM | 2.12 µM | 132 to 134 °C | 0.13 µM |  |  |  |  |
| CC1CCC(n2c(=O)n(C(C)C)c3cnc(Nc4ccc(N5CCNCC5)cc4)nc32)CC1 (stereo not shown) [15c] | 4.14 µM | 0.04 µM | 1.45 µM | 1.1 µM | 264 to 266 °C | 0.13 µM |  |  |  |  |
| CC(C)n1c(=O)n(C2CCCCCC2)c2nc(Nc3ccc(N4CCNCC4)cc3)ncc21 [15d] | 2.32 µM | 0.027 µM | 1.18 µM | 1.1 µM |  | 0.1 µM |  |  |  |  |
